Measured values as given in patent publication US20230109839A1, “THERAPEUTIC AGENT FOR TAUOPATHIES” (SUMITOMO PHARMA CO., LTD., priority 2020, published 2023).

These compounds were tested against T1, human Nav1.1 (Homo sapiens, UniProt P35498) (assay: Amplification of Nav1.1-derived voltage-gated sodium current (Nav1.1 current), automated patch clamp (Test 1)). Conditions: Concentration for evaluation 1 μM; HEK293 cell line stably expressing human Nav1.1.
T1 construct: host or cells: HEK293
Assay type: cell-based
Procedure, shortened: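 Compound-induced change in ramp-evoked sodium current peak and AUC was expressed as 100×post/pre ratio minus 100. Recordings used automated patch clamp in voltage-clamp mode on a stable human Nav1.1 HEK293 line, including only cells above 500 pA. Compounds were delivered in extracellular fluid containing 1% DMSO.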

Point of comparison: `CN(c1cnc2cnn(CC(=O)Nc3cnc4ncccc4c3)c2n1)C1CC1` [Example 723], “Nav1.1 current amplification rate (%)” value 95%. Against it:
- CC1CC=C(c2ccc(=O)n(CC(=O)N3CCc4c(CNC5COC5)cccc43)n2)CC1 (centres unmarked) [Example 313] — lower, 84%
- CC1CC=C(c2ccc(=O)n(CC(=O)Nc3ccc4nccn4c3)n2)CC1 (centres unmarked) [Example 343] — lower, 44%
- CC1CC=C(c2ccc(=O)n(CC(=O)Nc3ccc4nccnc4c3)n2)CC1 (centres unmarked) [Example 354] — higher, 123%
- Cc1ncc(-c2cncc(NC(=O)Cn3nc(C4=CCC(C)CC4)ccc3=O)c2)o1 (centres unmarked) [Example 380] — lower, 82%
- Cc1cn2ccc(NC(=O)Cn3ncc4ncc(N(C)C5CC5)nc43)cc2n1 [Example 703] — lower, 27%
- CC1CCN(c2ncc3cnn(CC(=O)Nc4ccn5ncnc5c4)c3n2)CC1(F)F (centres unmarked) [Example 788] — higher, 174%
- CC1CC=C(c2ccc(=O)n(CC(=O)Nc3ccn4cnnc4c3)n2)CC1 (centres unmarked) [Example 358] — lower, 71%
- CC1CC=C(c2ccc(=O)n(CC(=O)Nc3ccc4ncnn4n3)n2)CC1 (centres unmarked) [Example 350] — lower, 31%
- CN(c1cnc2cnn(CC(=O)Nc3ccn4ccnc4c3)c2n1)C1CC1 [Example 702] — lower, 60%
- CN(c1cnc2cnn(CC(=O)N3CCc4cc(N5CCOCC5)ccc43)c2n1)C1CC1 [Example 705] — lower, 54%
- CC(C1CC1)N(C)c1cnc2cnn(CC(=O)Nc3ccn4ncnc4c3)c2n1 (centres unmarked) [Example 633] — lower, 15%
- CC1CC=C(c2ccc(=O)n(CC(=O)N3CCCN(c4cccnc4)CC3)n2)CC1 (centres unmarked) [Example 384] — lower, 15%
- CN(CC1(F)CC1)c1cnc2cnn(CC(=O)Nc3ccn4ncnc4c3)c2n1 [Example 640] — lower, 38%
- CN1CCN(c2cccc3c2CCN3C(=O)Cn2ncc3ncc(N(C)C4CCC4)nc32)CC1 [Example 697] — lower, 21%
- CC1(C)CC=C(c2cnc3cnn(CC(=O)Nc4ccc5ncnn5c4)c3n2)CC1 [Example 649] — lower, 91%
- O=C(Cn1ncc2cnc(N3CCC4(CCC4)CC3)nc21)Nc1ccn2ncnc2c1 [Example 766] — lower, 41%
- CO[C@@H]1CCN(Cc2cccc3c2CCN3C(=O)Cn2nc(C3=CCC(C)CC3)ccc2=O)C1 (some centres unmarked) [Example 273] — lower, 77%
- Cc1cc(NC(=O)Cn2ncc3ncc(N(C)C4CC4)nc32)cc2ncnn12 [Example 704] — higher, 109%
- CN(c1cnc2cnn(CC(=O)N3CCc4c(C#N)cccc43)c2n1)C1CC1 [Example 715] — lower, 13%
- CC1CC=C(c2ccc(=O)n(CC(=O)N3CCc4cc(-c5cccnc5)ccc43)n2)CC1 (centres unmarked) [Example 298] — lower, 51%
- CC1CC=C(c2ncc3cnn(CC(=O)Nc4ccn5ncnc5c4)c3n2)CC1 (racemic) [Example 764] — higher, 164%

Same assay, conditions: Concentration for evaluation 3 μM; HEK293 cell line stably expressing human Nav1.1

Point of comparison: `CN(c1cnc2cnn(CC(=O)N3CCN(c4cccc(F)c4)CC3)c2n1)C1CC1` [Example 714], “Nav1.1 current amplification rate (%)” value 11%. Against it:
- CC1CC=C(c2ccc(=O)n(CC(=O)N3CCc4c(C5CN(C(=O)CO)C5)cccc43)n2)CC1 (centres unmarked) [Example 321] — higher, 478%
- CC(C)c1ccc(NC(=O)Cn2ncc3ncc(N(C)C4CC4)nc32)cn1 [Example 708] — higher, 25%
- Cc1nc2cc(NC(=O)Cn3nc(C4=CCC(C)CC4)ccc3=O)cnc2s1 (centres unmarked) [Example 326] — higher, 132%
- CC1CC=C(c2ccc(=O)n(CC(=O)N3CCc4c(CN5CCOCC5)cccc43)n2)CC1 (centres unmarked) [Example 270] — higher, 481%
- CC1CC=C(c2ccc(=O)n(CC(=O)Nc3ccc4oc(C(C)(C)O)nc4c3)n2)CC1 (centres unmarked) [Example 327] — higher, 124%
- COCc1nc2cc(NC(=O)Cn3nc(C4=CCC(C)CC4)ccc3=O)ccc2o1 (centres unmarked) [Example 325] — higher, 233%

Same assay, conditions: Concentration for evaluation 10 μM; HEK293 cell line stably expressing human Nav1.1

Point of comparison: `O=C(Cn1nc(C2=CCC(C(F)(F)F)CC2)ccc1=O)Nc1ccc2ocnc2c1` (racemic) [Example 446], “Nav1.1 current amplification rate (%)” value 333%. Against it:
- CCc1nc2cc(NC(=O)Cn3nc(N4CCC(C)CC4)ccc3=O)ccc2o1 [Example 97] — lower, 296%
- CC1CC=C(c2ccc(=O)n(CC(=O)Nc3ccc(C#N)cc3)n2)CC1 (centres unmarked) [Example 41] — lower, 324%
- Cc1ccc(N2CCN(C(=O)Cn3nc(C4=CCC(C)(C)CC4)ccc3=O)CC2)cn1 [Example 443] — lower, 114%
- CC1CCN(c2ccc(=O)n(CC(=O)Nc3ccc4oc(N(C)C)nc4c3)n2)CC1 [Example 91] — lower, 93%
- CC1CC=C(c2ccc(=O)n(CC(=O)N3CCN(c4cccnc4)CC3)n2)CC1 (centres unmarked) [Example 395] — higher, 343%
- CC1CC=C(c2ccc(=O)n(CC(=O)N3CC4(C3)CN(c3cccnc3)C4)n2)CC1 (racemic) [Example 424] — lower, 40%
- N#Cc1ccc(NC(=O)Cn2nc(N3CCC4(CC3)CC4)ccc2=O)cc1 [Example 17] — lower, 212%
- CC1CCN(c2ccc(=O)n(CC(=O)Nc3ccc4c(c3)ncn4C)n2)CC1 [Example 98] — lower, 15%
- COc1cc(C2=CCC(C(F)(F)F)CC2)nn(CC(=O)N2CCc3c(N4CCOCC4)cccc32)c1=O (centres unmarked) [Example 474] — lower, 235%
- CC1CCN(c2ccc(=O)n(CC(=O)Nc3cccc(-n4ccnc4)c3)n2)CC1 [Example 67] — lower, 177%
- CC1(C)CC=C(c2ccc(=O)n(CC(=O)Nc3ccn4ccnc4c3)n2)CC1 [Example 425] — lower, 283%
- Cc1ccc(-c2nn(CC(=O)Nc3ccn4ccnc4c3)c(=O)c(C)c2C)cc1 [Example 156] — lower, 33%
- COc1nc2cc(NC(=O)Cn3nc(C4=CCC(C)CC4)ccc3=O)ccc2o1 (centres unmarked) [Example 239] — lower, 310%
- CC1CCN(c2ccc(=O)n(CC(=O)Nc3cccc(-c4cnco4)c3)n2)CC1 [Example 77] — lower, 93%
- CC1CCN(c2ccc(=O)n(CC(=O)Nc3ccc4ncn(C)c4c3)n2)CC1 [Example 85] — lower, 15%
- Cc1noc2cc(NC(=O)Cn3nc(N4CCC(C)CC4)ccc3=O)ccc12 [Example 84] — lower, 315%
- CC1CC2(C1)CN(c1cnc3cnn(CC(=O)Nc4ccn5ncnc5c4)c3n1)C2 [Example 638] — lower, 58%
- CC1CCN(c2ccc(=O)n(CC(=O)Nc3ccnc(C#N)c3)n2)CC1 [Example 53] — lower, 161%
- COc1cc(C2=CCC(C(F)(F)F)CC2)nn(CC(=O)Nc2ccn3ccnc3c2)c1=O (centres unmarked) [Example 462] — lower, 124%
- COc1cncc(C2=CCN(C(=O)Cn3nc(C4=CCC(C)CC4)ccc3=O)CC2)c1 (centres unmarked) [Example 403] — lower, 270%
- CC1CC=C(c2ccc(=O)n(CC(=O)Nc3ccnc(CO)c3)n2)CC1 (centres unmarked) [Example 370] — lower, 35%
- Cc1ccc(N2CCN(C(=O)Cn3nc(C4=CCC(C)CC4)ccc3=O)CC2)cn1 (centres unmarked) [Example 396] — lower, 136%

Same assay, conditions: Concentration for evaluation 50 μM; HEK293 cell line stably expressing human Nav1.1

Point of comparison: `CN(c1cnc2cnn(CC(=O)Nc3ccc4cccnc4n3)c2n1)C1CC1` [Example 712], “Nav1.1 current amplification rate (%)” value 78%. Against it:
- CC1CC=C(c2ccc(=O)n(CC(=O)N3CCN(C4CCCOC4)CC3)n2)CC1 (centres unmarked) [Example 408] — higher, 80%
- COC1CN(Cc2cncc(NC(=O)Cn3nc(C4=CCC(C)CC4)ccc3=O)c2)C1 (centres unmarked) [Example 366] — lower, 37%
- Cc1cccc(F)c1Nc1ncc2cnn(CC(=O)Nc3ccn4ncnc4c3)c2n1 [Example 775] — lower, 12%

Same assay, conditions: HEK293, Concentration for evaluation 1 μM; HEK293 cell line stably expressing human Nav1.1; read-out: Nav1.1 current amplification rate (%)

Point of comparison: `CN(c1cnc2cnn(CC(=O)Nc3cnc4cccnc4c3)c2n1)C1CC2(CC2)C1` [Example 752], activation at 1 µM 135%. Against it:
- CN(c1cnc2cnn(CC(=O)Nc3ccc(C#N)nc3)c2n1)C1CC(C)(C)C1 [Example 756] — lower, 104%
- CN(CC1CC1)c1cnc2cnn(CC(=O)Nc3ccc(C#N)nc3)c2n1 [Example 748] — lower, 17%

Same assay, conditions: HEK293, Concentration for evaluation 50 μM; HEK293 cell line stably expressing human Nav1.1; read-out: Nav1.1 current amplification rate (%)

For `Cc1ccc(-c2cnc3cnn(CC(=O)N4CCN(c5ccncc5)CC4)c3n2)c(F)c1` [Example 743], the activation at 50 µM was 39%.

Same assay, conditions: HEK293, concentration for evaluation 1 μM; HEK293 stably expressing human Nav1.1; read-out: Nav1.1 current amplification rate (%)

`CC1CC=C(c2cnc3cnn(CC(=O)Nc4ccn5ncnc5c4)c3n2)CC1` (centres unmarked) [Example 895, 2-[6-(4-methylcyclohex-1-en-1-yl)-1H-pyrazolo[3,4-b]pyrazin-1-yl]-N-([1,2,4]triazolo[1,5-a]pyridin-7-yl)acetamide] showed an activation at 1 µM of 244%.

Same assay, conditions: concentration for evaluation 1 μM; HEK293 stably expressing human Nav1.1

Point of comparison: `CC(C)CN(C)c1ccc2cnn(CC(=O)Nc3ccn4ncnc4c3)c2n1` [Example 861], “Nav1.1 current amplification rate (%)” value 78%. Against it:
- CC1CCN(c2ccc3cnn(CC(=O)Nc4ccc5ncnn5c4)c3n2)CC1 [Example 872] — lower, 38%
- N#Cc1cnc(NC(=O)Cn2ncc3cnc(N4CCC5(CC5)C(F)(F)C4)nc32)cn1 [Example 828] — higher, 108%
- CC1CCN(c2ncc3cnn(CC(=O)Nc4ccc5cncnc5c4)c3n2)CC1 [Example 806] — higher, 262%
- CN(CC1CC(F)(F)C1)c1ncc2cnn(CC(=O)Nc3ccn4ncnc4c3)c2n1 [Example 799] — lower, 35%
- CN(CC1(C)CC1)c1ncc2cnn(CC(=O)Nc3ccn4ncnc4c3)c2n1 [Example 804] — higher, 93%
- O=C(Cn1ncc2ccc(C3=CCC(F)(F)CC3)nc21)Nc1ccn2ncnc2c1 [Example 860] — lower, 50%
